Test results as given in ChEMBL document CHEMBL1131679, “Synthesis and activity of sulfonamide-substituted 4,5-diaryl thiazoles as selective cyclooxygenase-2 inhibitors” (Bioorg Med Chem Lett, 1999).
pIC50: −log10 of the molar value.

Tests used:
[1] = test system: Rattus norvegicus; assay: In vivo activity was determined by rat pouch assay at concentration of 2 mg/kg; format: functional
[2] = target: Prostaglandin G/H synthase 1 (Homo sapiens, UniProt P23219)
Description: Inhibition of human Prostaglandin G/H synthase 1

[3] = target: T1, Prostaglandin G/H synthase 2 (Homo sapiens, UniProt P35354); assay: In vitro inhibitory activity against human Prostaglandin G/H synthase 2 (COX-2)
T1 sequence (P35354 whole entry): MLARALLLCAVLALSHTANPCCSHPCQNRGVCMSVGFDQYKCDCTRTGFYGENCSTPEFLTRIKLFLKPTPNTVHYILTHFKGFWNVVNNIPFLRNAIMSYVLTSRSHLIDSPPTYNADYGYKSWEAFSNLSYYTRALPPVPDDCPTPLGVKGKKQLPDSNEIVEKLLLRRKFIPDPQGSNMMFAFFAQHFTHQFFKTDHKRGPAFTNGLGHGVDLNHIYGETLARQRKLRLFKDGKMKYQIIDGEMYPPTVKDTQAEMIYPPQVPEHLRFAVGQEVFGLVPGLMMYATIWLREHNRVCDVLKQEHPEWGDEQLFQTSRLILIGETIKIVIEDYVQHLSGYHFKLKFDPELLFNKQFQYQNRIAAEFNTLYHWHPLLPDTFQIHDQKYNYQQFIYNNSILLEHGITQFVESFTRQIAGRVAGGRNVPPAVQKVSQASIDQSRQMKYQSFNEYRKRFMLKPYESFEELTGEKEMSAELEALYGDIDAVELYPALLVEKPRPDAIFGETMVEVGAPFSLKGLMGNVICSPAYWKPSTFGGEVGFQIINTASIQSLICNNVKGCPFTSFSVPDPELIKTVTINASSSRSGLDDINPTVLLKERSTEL

Prostaglandin G/H synthase 1, sequence (P23219 whole entry): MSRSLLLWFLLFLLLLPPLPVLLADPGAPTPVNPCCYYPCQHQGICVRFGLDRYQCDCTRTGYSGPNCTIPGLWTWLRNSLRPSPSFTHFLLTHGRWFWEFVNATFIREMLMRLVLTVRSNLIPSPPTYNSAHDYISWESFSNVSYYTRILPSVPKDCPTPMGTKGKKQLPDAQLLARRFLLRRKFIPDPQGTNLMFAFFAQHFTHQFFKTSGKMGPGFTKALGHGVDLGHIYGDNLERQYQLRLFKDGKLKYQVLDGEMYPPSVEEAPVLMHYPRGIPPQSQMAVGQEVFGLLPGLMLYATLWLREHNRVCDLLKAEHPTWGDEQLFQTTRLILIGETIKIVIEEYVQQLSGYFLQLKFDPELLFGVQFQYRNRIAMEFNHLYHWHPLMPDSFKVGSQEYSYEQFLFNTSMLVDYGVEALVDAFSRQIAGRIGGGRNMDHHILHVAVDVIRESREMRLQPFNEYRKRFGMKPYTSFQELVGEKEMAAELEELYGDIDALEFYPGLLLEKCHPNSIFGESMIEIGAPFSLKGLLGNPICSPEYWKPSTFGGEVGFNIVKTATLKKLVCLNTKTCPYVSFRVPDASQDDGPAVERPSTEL

| Compound | pIC50 [2] | pIC50 [3] | inhibition in vivo at 2 mg/kg [1] [%] |
| --- | --- | --- | --- |
| Cc1nc(-c2ccccc2)c(-c2ccc(S(N)(=O)=O)cc2)s1 | 4.47 | 7.42 | 59 |
| Cc1nc(-c2ccc(Cl)cc2)c(-c2ccc(S(N)(=O)=O)cc2)s1 | 5.74 | 8.30 | 42 |
| COc1ccc(-c2nc(NCc3ccccc3)sc2-c2ccc(S(N)(=O)=O)cc2)cc1F | 8.00 | 7.23 |  |
| NS(=O)(=O)c1ccc(-c2sc(-c3ccccc3Cl)nc2-c2ccc(F)cc2)cc1 | 7.10 | 7.89 | 50 |
| NS(=O)(=O)c1ccc(-c2sc(COc3cc(Cl)cc(Cl)c3)nc2-c2ccc(F)cc2)cc1 | 6.92 |  |  |

The next lines start with results.

| pIC50 [2] | pIC50 [3] | Compound | inhibition in vivo at 2 mg/kg [1] [%] |
| --- | --- | --- | --- |
| < 4.00 | 5.61 | COc1ccc(-c2nc(-c3ccccc3Cl)sc2-c2ccc(S(N)(=O)=O)cc2)cc1F | 33 |
| 4.45 | 7.74 | Cc1nc(-c2ccc(S(N)(=O)=O)cc2)c(-c2ccc(Cl)cc2)s1 | 30 |
| 4.14 | 7.54 | Cc1nc(-c2ccc(S(N)(=O)=O)cc2)c(-c2ccccc2)s1 | 7 |
| 5.38 | 7.55 | COc1ccc(-c2nc(C)sc2-c2ccc(S(N)(=O)=O)cc2)cc1F |  |
| 3.94 | 7.62 | Cc1nc(-c2ccc(S(N)(=O)=O)cc2)c(-c2ccc(Br)cc2)s1 |  |
